Experimental data from patent publication US9242944B2 (UNIVERSITY OF MARYLAND, BALTIMORE, priority 2013, dated 2016).
Like-named read-outs stand apart in the source and are kept apart here. Blank lines part the entries; values can stand above or below the compound they belong to.

Target: T1, c-Myc-Max heterodimers (Homo sapiens, UniProt P01106)
T1 construct: c-Myc bHLH-ZIP domain (residues 353-437); His6-TEV protease substrate tag; made in house; host or cells: bacteria (pET151 vector for Myc)
Experiment: Electrophoretic mobility shift assay (EMSA) of c-Myc-Max dimerization and DNA binding
Method: The ability of a small-molecule to interfere with c-Myc-Max dimerization is conveniently assessed through the disruption of the c-Myc-Max/DNA ternary complex by an electrophoretic mobility shift assay (EMSA) using fluorescently-labelled DNA, and subsequently quantified by densitometry.(23) Accordingly, a 100-member library was screened for the ability to disrupt the c-Myc-Max dimer.
These were performed essentially as described previously (23). Briefly, Ni^+-agarose-purified His6-tagged c-Myc bHLH-ZIP domain (residues 353-437) was used for all binding assays as was the His6-tagged 151 residue isoform of Max, otherwise referred to as Max(S) (residues 2-151) (21). For each binding reaction, the proteins were allowed to heterodimerize at a concentration of 30 nM each in the presence of 20 nM of a 5′-HEX-tagged double-stranded 22-base pair oligonucleotide 5′-hexachlorofluoresceine-[…]-3′ (SEQ ID NO: 1) containing a consensus c-Myc binding site (CACGTG) and the indicated concentration of small molecule inhibitor. Control reactions contained the same oligonucleotide in the presence of 60 nM of the 160 residue isoform of Max referred to as Max(L) (21). All binding reactions were prepared in a buffer consisting of PBS (pH 7.3), 1 mmol/L EDTA, 0.1% NP40, 5% glycerol, 1 mmol/L DTT, and 0.4 mg/mL bovine serum albumin. Electrophoresis was performed on 8% polyacrylamide/bisacrylamide (80:1) gels in […] (23). Each reaction was run on at least three separate occasions.
EMSAs were performed essentially as described utilizing bacterially-expressed recombinant proteins purified nearly to homogeneity.(23) Experiments with Max homodimers used the His6-tagged 160 amino acid isoform of the protein, termed Max(L), which homodimerizes and binds DNA well. For studies with Myc-Max heterodimers, the His6-tagged 151 residue isoform of Max [Max(S)] was used, which binds DNA well as a heterodimer with Myc but poorly as a homodimer.(23) Recombinant Myc protein, expressed in the pET151 vector, consisted of the His6-TEV protease substrate-tagged 85 amino acid bHLH-ZIP domain. (23) Each protein was purified by Ni-agarose affinity chromatography as previously described. (23) The His6-TEV tag was removed from the Myc protein by TEV protease cleavage followed by re-purification using Ni-agarose affinity chromatography to remove the His6-TEV protease and the cleaved His6-TEV tag as previously described. Binding assays were performed with 30 nM of each protein and 30 nM of a 6-carboxy-2′,4,4′,5′,7,7′-hexachlorofluorescein (HEX)-tagged double-stranded oligonucleotide containing a consensus Myc binding site (IDT, Coralville, Iowa).(23)

[1] = read-out: Inhibition at 100 μM (%), Table 1, 100 μM compound, Myc-Max/DNA band intensity relative to control
[2] = Table 1, 100 μM compound, Myc-Max/DNA band intensity relative to control, read-out: Inhibition at 100 μM (%)
[3] = Table 10, 100 μM small-molecule, EMSA, read-out: % Inhibition of c-Myc-Max Dimerization
[4] = Table 2, 100 μM compound, Myc-Max/DNA band intensity relative to control, read-out: Inhibition at 100 μM (%)
[5] = Table 11, 100 uM, EMSA, read-out: % Inhibition of c-Myc-Max Dimerization

T1 sequence (P01106 368-452, one chain of several): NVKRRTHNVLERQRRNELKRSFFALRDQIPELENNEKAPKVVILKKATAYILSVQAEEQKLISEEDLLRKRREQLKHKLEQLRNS

Compound: O=[N+]([O-])c1ccc(Nc2ccccc2)c2nonc12 [Compound 3a, 7-Nitro-N-phenylbenzo[c][1,2,5]oxadiazol-4-amine]
inhibition at 100 µM [1]: 2%

Compound: O=[N+]([O-])c1ccc(NC2CCCCC2)c2nonc12 [Compound 3b, N-Cyclohexyl-7-nitrobenzo[c][1,2,5]oxadiazol-4-amine]
inhibition at 100 µM [2]: 11%

Compound: O=[N+]([O-])c1ccc(NCc2ccccc2)c2nonc12 [Compound 3c, N-Benzyl-7-nitrobenzo[c][1,2,5]oxadiazol-4-amine]
inhibition at 100 µM [2]: 0%

Compound: O=[N+]([O-])c1ccc(N2CCCCC2)c2nonc12 [Compound 3d, 4-Nitro-7-(piperidin-1-yl)benzo[c][1,2,5]oxadiazole]
inhibition at 100 µM [2]: 10%

Compound: Cc1cccc(-c2cc(C(=O)O)ccc2Nc2ccc([N+](=O)[O-])c3nonc23)c1 [Compound 3j53-5]
inhibition at 100 µM [3]: 16%

Compound: O=[N+]([O-])c1ccc(Oc2ccccc2-c2ccccc2)c2nonc12 [Compound 3j, 4-([1,1′-Biphenyl]-2-yloxy)-7-nitrobenzo[c][1,2,5]oxadiazole]
inhibition at 100 µM [2]: 36%

Compound: O=C(O)c1ccc(Nc2ccc([N+](=O)[O-])c3nonc23)c(-c2ccccc2)c1 [Compound 3jc42]
inhibition at 100 µM [3]: 10%

Compound: O=C(O)c1ccc(Nc2ccc([N+](=O)[O-])c3nonc23)c(-c2ccccc2-c2ccccc2)c1 [Compound 3jc53-1]
inhibition at 100 µM [3]: 18%

Compound: O=C(O)c1ccc(Nc2ccc([N+](=O)[O-])c3nonc23)c(-c2cccc(-c3ccccc3)c2)c1 [Compound 3jc53-2]
inhibition at 100 µM [3]: 0%

Compound: O=C(O)c1ccc(Nc2ccc([N+](=O)[O-])c3nonc23)c(-c2ccc(-c3ccccc3)cc2)c1 [Compound 3jc53-3]
inhibition at 100 µM [3]: 41%

Compound: Cc1ccccc1-c1cc(C(=O)O)ccc1Nc1ccc([N+](=O)[O-])c2nonc12 [Compound 3jc53-4]
inhibition at 100 µM [3]: 7%

Compound: N#Cc1ccccc1-c1cc(C(=O)O)ccc1Nc1ccc([N+](=O)[O-])c2nonc12 [Compound 3jc53-7]
inhibition at 100 µM [3]: 44%

Compound: N#Cc1cccc(-c2cc(C(=O)O)ccc2Nc2ccc([N+](=O)[O-])c3nonc23)c1 [Compound 3jc53-8]
inhibition at 100 µM [3]: 23%

Compound: N#Cc1ccc(-c2cc(C(=O)O)ccc2Nc2ccc([N+](=O)[O-])c3nonc23)cc1 [Compound 3jc53-9]
inhibition at 100 µM [3]: 13%

Compound: CCc1ccc(-c2cc(C(=O)O)ccc2Nc2ccc([N+](=O)[O-])c3nonc23)cc1 [Compound 3jc53-10]
inhibition at 100 µM [3]: 34%

Compound: CC(C)c1ccc(-c2cc(C(=O)O)ccc2Nc2ccc([N+](=O)[O-])c3nonc23)cc1 [Compound 3jc53-11]
inhibition at 100 µM [3]: 0%

Compound: CC(C)(C)c1ccc(-c2cc(C(=O)O)ccc2Nc2ccc([N+](=O)[O-])c3nonc23)cc1 [Compound 3jc53-12]
inhibition at 100 µM [3]: 2%

Compound: O=C(O)c1ccc(Nc2ccc([N+](=O)[O-])c3nonc23)c(-c2ccccc2O)c1 [Compound 3jc53-13]
inhibition at 100 µM [3]: 0%

Compound: COc1ccc(-c2cc(C(=O)O)ccc2Nc2ccc([N+](=O)[O-])c3nonc23)cc1 [Compound 3jc53-14]
inhibition at 100 µM [3]: 4%

Compound: O=C(O)c1ccc(-c2cc(C(=O)O)ccc2Nc2ccc([N+](=O)[O-])c3nonc23)cc1 [Compound 3jc53-15]
inhibition at 100 µM [3]: 6%

Compound: Cc1ccccc1-c1cc(Nc2ccc([N+](=O)[O-])c3nonc23)ccc1C(=O)O [Compound 3jc62-1]
inhibition at 100 µM [3]: 0%

Compound: Cc1cccc(-c2cc(Nc3ccc([N+](=O)[O-])c4nonc34)ccc2C(=O)O)c1 [Compound 3jc62-2]
inhibition at 100 µM [3]: 0%

Compound: Cc1ccc(-c2cc(Nc3ccc([N+](=O)[O-])c4nonc34)ccc2C(=O)O)cc1 [Compound 3jc62-3]
inhibition at 100 µM [3]: 0%

Compound: N#Cc1ccccc1-c1cc(Nc2ccc([N+](=O)[O-])c3nonc23)ccc1C(=O)O [Compound 3jc62-4]
inhibition at 100 µM [3]: 0%

Compound: N#Cc1cccc(-c2cc(Nc3ccc([N+](=O)[O-])c4nonc34)ccc2C(=O)O)c1 [Compound 3jc62-5]
inhibition at 100 µM [3]: 8%

Compound: N#Cc1ccc(-c2cc(Nc3ccc([N+](=O)[O-])c4nonc34)ccc2C(=O)O)cc1 [Compound 3jc62-6]
inhibition at 100 µM [3]: 25%

Compound: O=C(O)c1ccc(Nc2ccc([N+](=O)[O-])c3nonc23)cc1-c1ccccc1 [Compound 3jc62-7]
inhibition at 100 µM [3]: 0%

Compound: O=[N+]([O-])c1ccc(Nc2ccc(-c3ccccc3)cc2)c2nonc12 [Compound 3n]
inhibition at 100 µM [1]: 28%

Compound: Cc1ccc(Nc2ccc([N+](=O)[O-])c3nonc23)cc1 [Compound 3o, 7-Nitro-N-(p-tolyl)benzo[c][1,2,5]oxadiazol-4-amine]
inhibition at 100 µM [1]: 0%

Compound: O=C(O)c1ccc(Nc2ccc([N+](=O)[O-])c3nonc23)c(-c2ccc(C(F)(F)F)cc2)c1 [Compound 4jc23-6]
inhibition at 100 µM [3]: 0%

Compound: O=C(O)COCC(=O)Nc1ccc(Nc2ccccc2-c2ccccc2)c2nonc12 [Compound 5e, 2-(2-((7-([1,1′-Biphenyl]-2-ylamino)benzo[c][1,2,5]oxadiazol-4-yl)amino)-2-oxoethoxy)acetic acid]
inhibition at 100 µM [4]: 33%

Compound: O=[N+]([O-])c1ccc(Nc2ccccc2-c2ccccc2)cc1 [Compound 7, N-(4-Nitrophenyl)-[1,1′-biphenyl]-2-amine]
inhibition at 100 µM [4]: 0%

Compound: O=[N+]([O-])c1ccc(Nc2ccccc2-c2ccccc2)cc1 [SF-3-068]
inhibition at 100 µM [5]: 0%

Compound: O=C(O)c1cc(Nc2ccccc2-c2ccccc2)ccc1[N+](=O)[O-] [SF-3-070]
inhibition at 100 µM [5]: 5%

Compound: N#Cc1ccc(Nc2ccccc2-c2ccccc2)cc1 [SF-3-078]
inhibition at 100 µM [5]: 2%

Compound: N#Cc1cc([N+](=O)[O-])ccc1Nc1ccccc1-c1ccccc1 [SF-3-079]
inhibition at 100 µM [5]: 0%

Compound: N#Cc1cc(Nc2ccccc2-c2ccccc2)ccc1[N+](=O)[O-] [SF-3-080]
inhibition at 100 µM [5]: 0%

Compound: O=[N+]([O-])c1ccc(Nc2ccccc2-c2ccccc2)nc1 [SF-3-081]
inhibition at 100 µM [5]: 0%

Results, then the compound that gave them:

inhibition at 100 µM [2]: 11%
Compound: Cc1ccccc1Nc1ccc([N+](=O)[O-])c2nonc12 [Compound 3e, 7-Nitro-N-(o-tolyl)benzo[c][1,2,5]oxadiazol-4-amine]

inhibition at 100 µM [2]: ~40%
Compound: O=[N+]([O-])c1ccc(Nc2ccccc2Br)c2nonc12 [Compound 3f, N-(2-Bromophenyl)-7-nitrobenzo[c][1,2,5]oxadiazol-4-amine]

inhibition at 100 µM [2]: 13%
Compound: O=[N+]([O-])c1ccc(Nc2ccccc2O)c2nonc12 [Compound 3g, 2-((7-Nitrobenzo[c][1,2,5]oxadiazol-4-yl)amino)phenol]

inhibition at 100 µM [2]: 0%
Compound: COc1ccccc1Nc1ccc([N+](=O)[O-])c2nonc12 [Compound 3h, N-(2-Methoxyphenyl)-7-nitrobenzo[c][1,2,5]oxadiazol-4-amine]

inhibition at 100 µM [2]: 8%
Compound: O=C(O)c1ccccc1Nc1ccc([N+](=O)[O-])c2nonc12 [Compound 3i, 2-((7-Nitrobenzo[c][1,2,5]oxadiazol-4-yl)amino)benzoic acid]

inhibition at 100 µM [2]: 0%
Compound: O=C(O)c1cccc(Nc2ccc([N+](=O)[O-])c3nonc23)c1 [Compound 3m, 3-((7-Nitrobenzo[c][1,2,5]oxadiazol-4-yl)amino)benzoic acid]

inhibition at 100 µM [4]: 2%
Compound: CC(=O)Nc1ccc(Nc2ccccc2-c2ccccc2)c2nonc12 [Compound 5a, N-(7-([1,1′-Biphenyl]-2-ylamino)benzo[c][1,2,5]oxadiazol-4-yl)acetamide]

inhibition at 100 µM [4]: 25%
Compound: O=C(Nc1ccc(Nc2ccccc2-c2ccccc2)c2nonc12)C(F)(F)F [Compound 5b, N-(7-([1,1′-Biphenyl]-2-ylamino)benzo[c][1,2,5]oxadiazol-4-yl)-2,2,2-trifluoroacetamide]

inhibition at 100 µM [4]: 0%
Compound: COC(=O)Nc1ccc(Nc2ccccc2-c2ccccc2)c2nonc12 [Compound 5c, Methyl (7-([1,1′-biphenyl]-2-ylamino)benzo[c][1,2,5]oxadiazol-4-yl)carbamate]

inhibition at 100 µM [4]: 17%
Compound: O=C(O)CCC(=O)Nc1ccc(Nc2ccccc2-c2ccccc2)c2nonc12 [Compound 5d, 4-((7-([1,1′-Biphenyl]-2-ylamino)benzo[c][1,2,5]oxadiazol-4-yl)amino)-4-oxobutanoic acid]
